Series [1] relates to Mus musculus. Nature of the series: Toxicity in albino CF-1 Mus musculus (mouse) assessed as motor impairment at 300 mg/kg measured after 0.5 hr by rotarod test. In kind it is organism-based. Further details: dose 300 mg/kg. The note with it: in vivo.
For series [2], the species on record is Mus musculus. The series can be described thus: Anticonvulsant activity in albino CF-1 Mus musculus (mouse) assessed as minimum dose required to protect half or more animals against maximal electroshock-induced seizures measured after 4 hr by electroshock seizure method. Format: functional. The conditions noted are these: albino CF-1, 4 h, read-out: MED.
For series [3], the species on record is Mus musculus. The series can be described thus: Anticonvulsant activity in albino CF-1 Mus musculus (mouse) assessed as minimum dose required to protect half or more animals against maximal electroshock-induced seizures measured after 0.5 hr by electroshock seizure method. In kind it is functional. The note with it: albino CF-1, 0.5 h, read-out: MED.
Series [4] is filed under the species Mus musculus. Nature of the series: Toxicity in albino CF-1 Mus musculus (mouse) assessed as minimum dose required to induce motor impairment in half or more animals measured after 4 hr by rotarod test. In kind it is organism-based. The conditions noted are these: in vivo.
The test system of series [5] is Mus musculus. The series can be described thus: Induction of CNS depressant activity in albino CF-1 Mus musculus (mouse) assessed as increase in immobility at 100 mg/kg, ip measured after 30 min by Porsolt's force swim pool method. Format: organism-based, Central nervous system. Further details: dose 100 mg/kg, route intraperitoneal. The note with it: in vivo, 0.5 h.

For series [6], the system named is Mus musculus. Nature of the series: Induction of CNS depressant activity in albino CF-1 Mus musculus (mouse) assessed as duration of immobility at 100 mg/kg, ip measured after 30 min by Porsolt's force swim pool method (reference value: 52.7 +/-0.70 secs). Format: organism-based, Central nervous system. Further details: dose 100 mg/kg, route intraperitoneal. The note with it: in vivo, 0.5 h.

Series [7] deals with Mus musculus. Nature of the series: Toxicity in albino CF-1 Mus musculus (mouse) assessed as motor impairment at 300 mg/kg measured after 4 hr by rotarod test. Format: organism-based. Details: dose 300 mg/kg. The note with it: in vivo.
The species entered for series [8] is Mus musculus. The series can be described thus: Toxicity in albino CF-1 Mus musculus (mouse) assessed as minimum dose required to induce motor impairment in half or more animals measured after 0.5 hr by rotarod test. In kind it is organism-based. The note with it: in vivo.
In series [9] the test system is Mus musculus. The series can be described thus: Anticonvulsant activity in albino CF-1 Mus musculus (mouse) assessed as protection against maximal electroshock-induced seizures at 300 mg/kg measured after 0.5 hr by electroshock seizure method. Format: functional, organism-based. Further details: dose 300 mg/kg.

The values that follow come from ChEMBL document CHEMBL3044686, “Synthesis and biological evaluation of some new quinazolin-4(3H)-ones derivatives as anticonvulsants” (Med Chem Res, 2013).

The structures appear in SMILES notation. The source made the active and inactive calls. The calls are words filed in the database; no cut-off is given here.

For the molecule `O=C1NC(=O)C(c2ccccc2)(c2ccccc2)N1` [PHENYTOIN], the Activity entry in the series with Mus musculus [1] is recorded as “Non-toxic”. The minimal effective dose in the series filed under Mus musculus [2] and in the series listed under Mus musculus [3] was 30 mg/kg in each case. The MED in the series filed under Mus musculus [4] amounted to 100 mg/kg.

`C=CCCOc1cccc(/C=N/n2c(-c3ccccc3)nc3ccccc3c2=O)c1`: the Activity with Mus musculus [5] is recorded as 110.81%; in the series on Mus musculus [7] it was “Non-toxic”; in the series with Mus musculus [1], “Non-toxic”. Moreover, the Time in the series with Mus musculus [6] is 111.1 s. In addition, the minimal effective dose was 100 mg/kg in the series filed under Mus musculus [2] and 300 mg/kg in the series listed under Mus musculus [3].

Consider `CCCOc1cccc(/C=N/n2c(-c3ccccc3)nc3ccccc3c2=O)c1`, for which the Activity in the series with Mus musculus [5] is recorded as 52.18%; in the series with Mus musculus [7], “Non-toxic”; in the series with Mus musculus [1], “Non-toxic”. For the same molecule, in the series on Mus musculus [6], the Time is 80.2 s. Further, the figures for the minimal effective dose in the series filed under Mus musculus [2] and in the series listed under Mus musculus [3] were 30 mg/kg and 100 mg/kg, respectively.

For the molecule `NC(=O)N1c2ccccc2C=Cc2ccccc21` [CARBAMAZEPINE], the Activity in the series with Mus musculus [5] worked out at 56.35%. Further, in the series on Mus musculus [6], the Time is reported as 82.4 s. Besides, the MED turned out to be 300 mg/kg in the series listed under Mus musculus [8] and 100 mg/kg in the series filed under Mus musculus [4]. Besides, the minimal effective dose in the series listed under Mus musculus [2] and in the series filed under Mus musculus [3] was 30 mg/kg in each case.

With `O=c1c2ccccc2nc(-c2ccccc2)n1/N=C/c1cccc(O)c1`, in the series on Mus musculus [9], the result was inactive. The Activity result with Mus musculus [7] and in the series with Mus musculus [1] was “Non-toxic” throughout. The minimal effective dose in the series listed under Mus musculus [2] was determined as 100 mg/kg.

As for `CCOc1cccc(/C=N/n2c(-c3ccccc3)nc3ccccc3c2=O)c1`, the values for the Activity in the series with Mus musculus [5], with Mus musculus [7] and with Mus musculus [1] were 29.6%, “Non-toxic” and “Non-toxic”, respectively. Besides, the Time with Mus musculus [6] is 68.3 s. For the same molecule, the minimal effective dose in the series listed under Mus musculus [2] and in the series listed under Mus musculus [3] was 100 mg/kg throughout.

With `COc1cccc(/C=N/n2c(-c3ccccc3)nc3ccccc3c2=O)c1`, the outcome in the series on Mus musculus [9] was inactive. Also, the Activity entry in the series on Mus musculus [7] and with Mus musculus [1] was “Non-toxic” throughout. Further, the minimal effective dose in the series listed under Mus musculus [2] came out at 100 mg/kg.

With `CC(C)Oc1cccc(/C=N/n2c(-c3ccccc3)nc3ccccc3c2=O)c1`, the Activity entry in the series with Mus musculus [7] and with Mus musculus [1] was “Non-toxic” each time. The minimal effective dose in the series listed under Mus musculus [2] and in the series listed under Mus musculus [3] was 300 mg/kg each time.

In the case of `CCCCOc1cccc(/C=N/n2c(-c3ccccc3)nc3ccccc3c2=O)c1`, the Activity result in the series with Mus musculus [7] and in the series on Mus musculus [1] was “Non-toxic” in each case. In addition, the figures for the minimal effective dose in the series filed under Mus musculus [2] and in the series filed under Mus musculus [3] were 100 mg/kg and 300 mg/kg, respectively.

For the molecule `O=c1c2ccccc2nc(-c2ccccc2)n1/N=C/c1cccc(OCc2ccccc2)c1`, the result with Mus musculus [9] was inactive. In addition, the Activity result in the series with Mus musculus [1] is “Non-toxic”. For the same molecule, the minimal effective dose in the series listed under Mus musculus [2] is 300 mg/kg. In the series listed under Mus musculus [4], the MED is 300 mg/kg.

With `C=CCOc1cccc(/C=N/n2c(-c3ccccc3)nc3ccccc3c2=O)c1`, the Activity entry with Mus musculus [7] and in the series with Mus musculus [1] was “Non-toxic” in each case. The minimal effective dose in the series filed under Mus musculus [2] and in the series listed under Mus musculus [3] was 300 mg/kg each time.
